Results filed as inconclusive are left out.
Molecular target: Solute carrier family 2, facilitated glucose transporter member 1 (Homo sapiens) (UniProt P11166)
Assay: SLC2A1-mediated glucose transport in cells – cell-based, flow cytometry, glucose FRET sensor, HEK293 JumpIN TRex, wild type, dose response (AID 1794830)
Settings: HEK293 JumpIN SLC2A1-OE

Sequence of Solute carrier family 2, facilitated glucose transporter member 1 (Homo sapiens) (P11166 whole entry, looked up): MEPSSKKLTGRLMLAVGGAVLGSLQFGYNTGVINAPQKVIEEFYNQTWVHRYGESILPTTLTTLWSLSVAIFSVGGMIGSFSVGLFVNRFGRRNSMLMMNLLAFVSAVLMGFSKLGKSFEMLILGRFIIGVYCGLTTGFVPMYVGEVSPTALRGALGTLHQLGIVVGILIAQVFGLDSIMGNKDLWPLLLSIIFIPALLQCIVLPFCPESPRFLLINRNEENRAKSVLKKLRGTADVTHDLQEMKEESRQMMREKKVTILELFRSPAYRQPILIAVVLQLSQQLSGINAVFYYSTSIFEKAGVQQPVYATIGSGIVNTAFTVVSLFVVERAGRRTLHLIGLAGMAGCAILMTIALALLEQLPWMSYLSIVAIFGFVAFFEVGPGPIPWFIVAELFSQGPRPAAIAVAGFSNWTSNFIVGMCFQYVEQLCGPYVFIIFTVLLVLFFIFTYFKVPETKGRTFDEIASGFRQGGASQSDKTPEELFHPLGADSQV

Q: With `OC[C@H]1OC(O)[C@H](O)[C@@H](O)[C@@H]1O` (stereo partly specified) as the compound, how does the EC50 (substrate transport, FRET signal increase) read?
A: 527 µM

Reference: PubChem BioAssay AID1794830
